In one assay the test system is B16F10 melanoma. The assay can be described thus: B16F10 melanoma syngeneic tumor model. Type of assay: in vivo, mouse. The conditions noted are these: B16F10 in WT mice, 1.8 mg/kg NR-V04 or 0.75 mg/kg celastrol i.p. twice a week from day 7. An excerpt:
(§1) 7–9-wk-old C57BL/6J, B6.129S2-Ighm^tm1Cgn/J (002288), B6.129S2-Nr4a1^tm1Jmi/J (NR4A1^−/−, 006187), and NOD-SCID interleukin-2 receptor gamma null (NSG) mice were purchased from Jackson Laboratories. For all studies involving NR-V04 and celastrol, the compounds were formulated in 50% phosal PG, 45% miglyol 810N, and 5% polysorbate 80 and administered via i.p. injection.
(§2) For syngeneic tumor models, 5 × 10^5 cells MC38, Yumm1.7, and Yummer1.7, 1 × 10^5 cells of B16F10 were resuspended in PBS and implanted into 7–9-wk-old mice subcutaneously. For the tumor inhibition experiment, mice were treated with 1.8 mg/kg NR-V04 or 0.75 mg/kg celastrol by i.p. injection twice weekly. For the immune profile experiment, once tumors reached 0.5 cm in diameter, mice were treated with 1.8 mg/kg NR-V04 by i.p. injection twice weekly. For the toxicity experiment, male and female non-tumor-bearing mice were treated with 2 mg/kg NR-V04 for two doses in the first week and 5 mg/kg for another two doses in the second week. Blood samples were taken from the submandibular (facial) vein before each treatment and 42 days later for hematological analysis, and body weight was measured twice per week up to day 42. Mice were euthanized in accordance with the IACUC protocol once the largest tumors reached 2 cm in diameter, and tissues were collected for further analysis.

In the next assay the test system is MC38 tumors. The assay can be described thus: MC38 colon cancer syngeneic tumor model. In kind it is in vivo, mouse. The note with it: MC38 in WT mice, 1.8 mg/kg NR-V04 or 0.75 mg/kg celastrol i.p. twice a week from day 7.
Source text: as §1, §2

The target of assay [1] is T1, NR4A1 (Homo sapiens, UniProt P22736).
T1 construct: NR-V04 effectively promoted the degradation of NR4A1 in two human melanoma cell lines within 16 h; endogenous in cells; host or cells: CHL-1, A375, WM164, M229 human melanoma cells
Briefly: NR4A1 degradation in CHL-1 human melanoma cells (immunoblotting). Type of assay: cell-based. The note with it: CHL-1 cells, 16 h. On the procedure:
Human melanoma cell lines: A375 and CHL-1 (gifts from Dr. D. Zhou, the University of Texas Health Science Center, San Antonio, TX, USA) were cultured in Dulbecco’s Modified Eagles’ Medium (DMEM, D5796; Sigma-Aldrich), WM164 and M229 (gifts from Dr. K.S.M. Smalley’s lab) were cultured in RPMI-1640 (R8758; Sigma-Aldrich). Mouse melanoma cell lines: B16F10 (CRL-6475, ATCC) was cultured in DMEM, SW1 and SM1 (gift from Dr. K.S.M. Smalley, Moffitt Cancer Center, Tampa, FL, USA) were cultured in RPMI. Human epithelial kidney cell lines: HEK293T (293T, CRL-3216; ATCC) and Vhl-KO-293T (gift from Dr. D. Zhou, the University of Texas Health Science Center, San Antonio, TX, USA) were cultured in DMEM. Mouse colon cancer cell lines: MC38 (ENH204-FP; Kerafast Inc.) was cultured in DMEM supplemented with 1 mM glutamine, […] non-essential amino acids (11140050; Thermo Fisher Scientific), 1 mM sodium pyruvate (11360070; Thermo Fisher Scientific), and 10 mM HEPES (15630080; Thermo Fisher Scientific). All cell culturing media were supplemented with 10% fetal bovine serum (FBS, F2442; Sigma-Aldrich), 100 U/ml penicillin, and 100 µg/ml streptomycin (P4333; Sigma-Aldrich).
Samples were lysed using radioimmunoprecipitation assay buffer (RIPA) lysis buffer (150 mM NaCl, 5 mM EDTA, 50 mM Tris pH 8.0, 0.5% sodium deoxycholate, 1% NP-40, 0.1% SDS) supplemented with 1 mM dithiothreitol and protease inhibitors. The lysates were separated by SDS-PAGE and analyzed using standard western blotting procedures ([Khan et al., 2019]). Antibodies: human NR4A1 (ab153914, 1:1,000; Abcam), mouse NR4A1 (14-5965-82, 1:1,000; Invitrogen), NR4A2 (AV38753, 1:1,000; Sigma-Aldrich), NR4A3 (TA804893, 1: 1,000; Thermo Fisher Scientific), VHL (68547, 1:1,000; Cell Signaling), β-actin (13E5, 1:5,000; Cell Signaling), β-tubulin (9F3, 1: 5,000; Cell Signaling), and GAPDH (D16H11, 1: 5,000; Cell Signaling) were employed for protein detection.

For assay [2], the target named is NR4A1. The conditions noted are these: ref Hu et al., 2017; read-out: binding affinity of celastrol to NR4A1 (Kd); cited from earlier work.
Another assay deals with NR4A1 mRNA. The assay can be described thus: NR4A1 mRNA by qPCR in CHL-1 cells. Type of assay: cell-based, human. The note with it: 500 nM, ACTB as control. On the procedure:
Total RNA was extracted from cells using RNeasy Kits (74004; QIAGEN) following the manufacturer’s instructions. cDNA synthesis was performed using SuperScript III Reverse Transcriptase (18080044; Thermo Fisher Scientific) with 100 ng RNA as the template. Amplification of cDNA was carried out using 2× PowerUP SYBR Green Master Mix (A25778; Thermo Fisher Scientific). Each reaction was conducted in triplicates and results were normalized to the expression of a housekeeping gene. Primer (Eurofins): human β-actin (forward sequence: 5′-CACCATTGGCAATGAGCGGTTC-3′; reverse sequence: 5′-AGGTCTTTGCGGATGTCCACGT-3′) and human NR4A1 (forward sequence: 5′-GGACAACGCTTCATGCCAGCAT-3′; reverse sequence: 5′-CCTTGTTAGCCAGGCAGATGTAC-3′).

For a further assay, the target named is NR4A1 and VHL (Homo sapiens, UniProt P22736+P40337). Briefly: Proximity ligation assay (PLA) for the NR4A1-VHL ternary complex. In kind it is cell-based. Further details: endogenous in cells; host or cells: CHL-1 and A375 human melanoma cells. The note with it: CHL-1 and A375 cells, 500 nM, 16 h, 0.5 μM MG132 pretreatment. How it is done: 5 × 10^4 CHL-1 and A375 cells were cultured in Nunc Lab-Tek Chamber Slide (177402; Thermo Fisher Scientific). The cells were treated with DMSO, 500 nM celastrol, and 500 nM NR-V04 for 16 h with MG132 inhibitor. The PLA was conducted with Duolink In Situ Red Starter Kit Mouse/Rabbit (DUO92101; Sigma-Aldrich) following the standard protocol. Additionally, a non-stain cell group was included as a negative control to account for background signal during PLA assay. The signal was detected using a confocal microscope (LSM 710; Zeiss). Primary antibody: NR4A1 (HPA059742, 2 μg/ml, isotype-rabbit; Sigma-Aldrich) and VHL (MA5-13940, 2 μg/ml, isotype-mouse; Thermo Fisher Scientific).

In general, Kd refers to the concentration at which binding is half-saturated.

T1 sequence (P22736 whole entry): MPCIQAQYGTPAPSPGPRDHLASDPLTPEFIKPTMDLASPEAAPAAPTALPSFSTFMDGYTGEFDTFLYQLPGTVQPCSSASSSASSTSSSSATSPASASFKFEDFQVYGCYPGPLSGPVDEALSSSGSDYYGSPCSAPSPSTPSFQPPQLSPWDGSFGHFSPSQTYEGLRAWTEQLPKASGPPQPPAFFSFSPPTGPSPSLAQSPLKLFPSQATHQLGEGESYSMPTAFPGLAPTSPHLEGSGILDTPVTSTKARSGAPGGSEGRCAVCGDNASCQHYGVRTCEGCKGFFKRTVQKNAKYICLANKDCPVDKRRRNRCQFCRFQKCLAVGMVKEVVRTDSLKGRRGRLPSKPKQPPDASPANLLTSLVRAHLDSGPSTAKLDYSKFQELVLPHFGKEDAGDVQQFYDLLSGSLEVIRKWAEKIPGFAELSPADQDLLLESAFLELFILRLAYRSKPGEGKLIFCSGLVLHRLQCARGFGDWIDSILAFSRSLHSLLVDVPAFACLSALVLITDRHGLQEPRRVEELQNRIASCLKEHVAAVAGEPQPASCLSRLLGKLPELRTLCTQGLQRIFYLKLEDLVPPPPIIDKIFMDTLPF
Sequence of NR4A1 and VHL (P22736 whole entry): as above
Sequence of NR4A1 and VHL (P40337 whole entry): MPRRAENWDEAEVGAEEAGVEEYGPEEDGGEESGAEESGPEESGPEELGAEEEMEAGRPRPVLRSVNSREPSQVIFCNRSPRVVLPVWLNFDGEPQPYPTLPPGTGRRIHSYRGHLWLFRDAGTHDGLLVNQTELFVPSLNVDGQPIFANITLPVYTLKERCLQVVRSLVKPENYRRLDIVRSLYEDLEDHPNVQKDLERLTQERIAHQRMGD
Sequence of NR4A1 and VHL (Q15369 whole entry partner): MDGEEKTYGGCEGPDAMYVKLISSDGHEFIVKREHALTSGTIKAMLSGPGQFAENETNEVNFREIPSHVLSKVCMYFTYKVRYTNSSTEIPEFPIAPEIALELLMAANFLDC
Sequence of NR4A1 and VHL (Q15370 whole entry partner): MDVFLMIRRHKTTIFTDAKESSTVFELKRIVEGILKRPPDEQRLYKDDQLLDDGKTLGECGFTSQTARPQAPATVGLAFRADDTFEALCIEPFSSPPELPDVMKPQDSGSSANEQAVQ

For `CC1=C(O)C(=O)C=C2C1=CC=C1[C@@]2(C)CC[C@@]2(C)[C@@H]3C[C@](C)(C(=O)O)CC[C@]3(C)CC[C@]12C` [celastrol, reference compound], the tumor growth result in the assay with B16F10 melanoma was “increased growth of B16F10 tumors”; in the assay with MC38 tumors it was “failure to inhibit tumor growth of MC38 tumors”. In addition, the “NR4A1 protein level, initial screening” value at NR4A1 [1] (250 nM, immunoblotting and densitometry) is on record as “did not alter the protein level of NR4A1”. In addition, on NR4A1 [1], the “NR4A1 protein level, dose response” value was “did not change NR4A1 protein level”. For the same molecule, at NR4A1 [2], the Kd is 290 nM. Moreover, the “NR4A1 mRNA level” value in the assay on NR4A1 mRNA was “increase in NR4A1 mRNA levels after 2 h”. Further, the “PLA signals (ternary complex formation NR4A1-VHL)” value on NR4A1 and VHL is reported as “did not”.
